How the values were obtained:
human GAL1 receptor = molecular target: T1, human GAL1 receptor (Homo sapiens, UniProt P47211); assay: Radioligand binding at cloned human GAL1 receptor; details: pyrimidines, read-out: Ki GalR1
T1 construct: expressed in transfected cells; membranes
T1 sequence (P47211 1-349): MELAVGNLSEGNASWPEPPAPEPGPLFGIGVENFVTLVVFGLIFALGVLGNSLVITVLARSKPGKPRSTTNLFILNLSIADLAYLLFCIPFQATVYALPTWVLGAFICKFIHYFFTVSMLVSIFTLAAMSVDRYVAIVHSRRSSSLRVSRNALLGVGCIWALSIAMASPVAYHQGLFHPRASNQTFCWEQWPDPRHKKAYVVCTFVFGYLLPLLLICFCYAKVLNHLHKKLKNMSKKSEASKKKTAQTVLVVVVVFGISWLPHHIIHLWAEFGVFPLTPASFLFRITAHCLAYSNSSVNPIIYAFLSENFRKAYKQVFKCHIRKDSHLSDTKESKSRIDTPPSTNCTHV
Excerpt: (§1) In order to test compounds for selective binding to the human GAL3 receptor the cloned cDNAs encoding both the human and rat GALL and GAL2 receptors have been used. The cloning and assay methods for the human and rat GAL1 receptors may be found in PCT International Publication No. WO 95/22608, the contents of which are hereby incorporated by reference. The cloning and assay methods for the human and rat GAL2 receptors may be found in PCT International Publication No. WO 97/26853, the contents of which are hereby incorporated by reference.
(§2) The present invention provides for a method of determining the binding affinity of a GAL3 antagonist, wherein the GAL3 antagonist is dissolved in a “suitable solvent”. A “suitable solvent” means one which permits the measurement of binding affinity of the GAL3 antagonist to the human GAL3 receptor at concentrations less than 1 μM, preferably less than 100 nM. Examples of solvents include, but are not limited to, DMSO, ethanol, N,N-dimethylacetamide, or water. For indolones, the preferred solvent is 3% DMSO (final concentration in the assay). For pyrimidines, the preferred solvent is 1% ethanol/0.09% polypuronic acid F-127 (final concentration in the assay). For any other type of compounds, the preferred solvent is the solvent which permits the measurement of binding affinity of a GAL3 antagonist at the lowest concentration. Once a suitable solvent is ascertained for the binding assay of the human GAL3 receptor, the same solvent is used in assays to determine the binding affinity at the GAL1 receptor, the serotonin transporter, the norepinephrine transporter, and the dopamine transporter. A solvent of 0.4% DMSO is used in the central monoamine oxidase enzyme assay.
(§3) The binding properties of the pyrimidines of the present invention were evaluated at the cloned human galanin receptors, GAL1, GAL2, and GAL3, using protocols described herein.
(§4) The binding properties of the indolones of the present invention were evaluated at the cloned human galanin receptors, GAL1, GAL2, and GAL3, using protocols described herein.
(§5) LM(tk−) cells were stably transfected with the human GALL or GAL3 receptor. CHO cells were stably transfected with the human GAL2 receptor.
(§6) cDNAs for the human and rat GAL1, and human and rat GAL3 receptors were transfected with a G-418 resistant gene into the mouse fibroblast LM(tk−) cell line by a calcium phosphate transfection method (Cullen, 1987). Stably transfected cells were selected with G-418. Human and rat GAL2 receptors were similarly transfected into CHO cells.
Membranes were harvested from stably transfected LM(tk−) cells. […] Protein concentration was measured by the Bradford method (Bradford, 1976) using Bio-Rad Reagent, with bovine serum albumin as a standard. […]

human GAL2 receptor = molecular target: T2, human GAL2 receptor (Homo sapiens, UniProt O43603); assay: Radioligand binding at cloned human GAL2 receptor; details: pyrimidines, read-out: Ki GalR2
T2 construct: expressed in transfected cells; membranes
T2 sequence (O43603 1-387): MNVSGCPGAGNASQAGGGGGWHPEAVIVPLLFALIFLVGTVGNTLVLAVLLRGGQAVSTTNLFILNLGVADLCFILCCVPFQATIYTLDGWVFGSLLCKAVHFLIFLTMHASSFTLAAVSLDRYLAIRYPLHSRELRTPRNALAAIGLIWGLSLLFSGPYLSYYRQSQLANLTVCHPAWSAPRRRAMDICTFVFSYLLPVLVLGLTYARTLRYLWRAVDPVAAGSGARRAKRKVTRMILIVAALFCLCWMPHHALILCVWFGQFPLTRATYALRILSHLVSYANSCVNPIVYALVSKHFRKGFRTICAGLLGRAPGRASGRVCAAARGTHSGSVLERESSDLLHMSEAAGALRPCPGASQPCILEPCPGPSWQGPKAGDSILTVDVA
Excerpt: as §1, §2, §3, §4, §5, §6
Membranes were harvested from stably transfected LM(tk−) cells. Adherent cells were washed twice in ice-cold phosphate buffered saline (138 mM NaCl, 8.1 mM Na2HPO4, 2.5 mM KCl, 1.2 mM KH2PO4, 0.9 mM CaCl2, 0.5 mM MgCl2, pH 7.4) and lysed by sonication in ice-cold sonication buffer (20 mM Tris-HCl, 5 mM EDTA, pH 7.7). Large particles and debris were cleared by low speed centrifugation (200×g, 5 min, 4° C.). Membranes were collected from the supernatant fraction by centrifugation (32,000×g, 18 min, 4° C.), washed with ice-cold hypotonic buffer, and collected again by centrifugation (32,000×g, 18 min, 4° C.). The final membrane pellet was resuspended by sonication into a small volume of ice-cold binding buffer (~1 ml for every 5 plates: 10 mM NaCl, 20 mM HEPES, 0.22 mM KH2PO4, 1.26 mM CaCl2, 0.81 mM MgSO4, pH 7.4). Protein concentration was measured by the Bradford method (Bradford, 1976) using Bio-Rad Reagent, with bovine serum albumin as a standard. […]

human GAL3 receptor = molecular target: T3, human GAL3 receptor (Homo sapiens, UniProt O60755); assay: Radioligand binding at cloned human GAL3 receptor; details: for Ki: pyrimidines, cloned human receptor, read-out: Ki GalR3
T3 construct: expressed in transfected cells; membranes
T3 sequence (O60755 1-368): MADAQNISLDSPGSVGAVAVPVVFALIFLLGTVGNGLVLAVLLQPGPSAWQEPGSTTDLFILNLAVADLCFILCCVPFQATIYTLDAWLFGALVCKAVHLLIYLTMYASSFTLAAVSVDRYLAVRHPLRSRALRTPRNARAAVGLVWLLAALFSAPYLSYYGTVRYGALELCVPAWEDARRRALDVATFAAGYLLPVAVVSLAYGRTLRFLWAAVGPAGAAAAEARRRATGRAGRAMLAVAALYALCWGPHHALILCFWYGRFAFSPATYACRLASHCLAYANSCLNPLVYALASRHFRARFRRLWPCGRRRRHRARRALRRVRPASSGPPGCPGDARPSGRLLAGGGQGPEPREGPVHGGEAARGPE
Experimental: as §2, §3, §4, §5, §6
Membranes were harvested from stably transfected LM(tk−) cells. Adherent cells were washed twice in ice-cold phosphate buffered saline (138 mM NaCl, 8.1 mM Na2HPO4, 2.5 mM KCl, 1.2 mM KH2PO4, 0.9 mM CaCl2, 0.5 mM MgCl2, pH 7.4) and lysed by sonication in ice-cold sonication buffer (20 mM Tris-HCl, 5 mM EDTA, pH 7.7). Large particles and debris were cleared by low speed centrifugation (200×g, 5 min, 4° C.). Membranes were collected from the supernatant fraction by centrifugation (32,000×g, 18 min, 4° C.), washed with ice-cold hypotonic buffer, and collected again by centrifugation (32,000×g, 18 min, 4° C.). The final membrane pellet was resuspended by sonication into a small volume of ice-cold binding buffer (~1 ml for every 5 plates: 10 mM NaCl, 20 mM HEPES, 0.22 mM KH2PO4, 1.26 mM CaCl2, 0.81 mM MgSO4, pH 7.4). Protein concentration was measured by the Bradford method (Bradford, 1976) using Bio-Rad Reagent, with bovine serum albumin as a standard. Membranes were held on ice for up to one hour and used fresh, or flash frozen and stored in liquid nitrogen. Membranes were prepared similarly from CHO cells.
Galanin Receptors Binding assays were performed according to the following published methods: human GAL3 (PCT International Publication No. WO 98/15570), human GAL1 (PCT International Publication No. WO 95/2260), human GAL2 (PCT International Publication No. WO 97/26853).
Binding data were analyzed using nonlinear regression and statistical techniques available in the GraphPAD Prism package (San Diego, Calif.). Enzymatic assay data were derived from a standard curve of reference compound data.
The selectivity ratios for compounds of the claimed invention were calculated from the binding data presented in Tables 1-4, Table 7 and Table 9 of the subject application. […]

[1] = molecular target: norepinephrine transporter (Rattus norvegicus, UniProt Q9WTR4); assay: Binding at native NE transporter; details: rNE Uptk
Experimental: The binding properties of the compounds of the present invention were evaluated at one or more cloned receptors or native, tissue-derived transporters, using protocols described below.
The methods to determine binding affinity at native transporters are described in the following publications: 5HT transporter and NE transporter (Owens et al., 1997), and DA transporter (Javitch et al, 1984).

male Sprague-Dawley rats [2] = assay: Rat Forced Swim Test (FST); assay type: in vivo; details: for Overall profile in the Forced Swim Test: conclusion of the study, male Sprague-Dawley rats
male Sprague-Dawley rats [3] = assay: Rat Social Interaction Test (SIT); assay type: in vivo
male Sprague-Dawley rats [4] = details: ex vivo data (Leonard, 1996); cited from earlier work
[5] = rat FST, single p.o. administration, 10 mg/kg, 1 hr before test, listed as Flu0x, 10 mg/kg

| Ki (human GAL2 receptor) | Ki (human GAL3 receptor) | SMILES | Overall profile in the Forced Swim Test (male Sprague-Dawley rats [2]) | also measured |
| --- | --- | --- | --- | --- |
| > 5 µM | 0.627 µM | Cc1ccc(N(c2ccc(C)cc2)c2cc(N3CCCCC3)nc(N)n2)cc1 [Example 4] |  | Ki (human GAL1 receptor): > 5 µM |
|  |  | Cc1ccc(Nc2cc(N3CCCCC3)nc(N(C)CCc3c[nH]c4ccccc34)n2)cc1 [Example 11] |  | Ki [1]: > 50 µM |
|  |  | CN(CCc1c[nH]c2ccccc12)c1nc(Nc2ccc(F)c(F)c2)cc(N2CCCCC2)n1 [Example 15] |  | Ki [1]: > 50 µM |
| 1.77 µM | 0.079 µM | COCCN(c1ccc(C)cc1)c1cc(N2CCCCC2)nc(NCCc2c[nH]c3ccccc23)n1 [Example 19] |  | Ki (human GAL1 receptor): > 5 µM |
|  |  | Cc1ccc(Nc2cc(N3CCCCC3)nc(N(C)CCc3ccccc3)n2)cc1 [Example 22] | has antidepressant properties | Ki [1]: 13.1 µM |
|  |  | Cc1ccc(Nc2cc(N3CCCCC3)nc(N3CCN(c4ncccc4C(F)(F)F)CC3)n2)cc1 [Example 34] | produces an effect in the FST that resembles that of antidepressants | GAL3/GAL1 binding ratio (Ki GAL1 divided by Ki GAL3) (human GAL3 receptor): 39 fold; Ki [1]: > 50 µM; Immobility (male Sprague-Dawley rats [2]; rat FST, single p.o. administration, 10 mg/kg, 1 hr before test, 10 mg/kg): not significantly decrease in immobility; Rearing (male Sprague-Dawley rats [3]; SIT, single p.o., 0.03 mg/kg): 27 ± 3; Overall profile in the Social Interaction Test (male Sprague-Dawley rats [3]; conclusion of the study, male rats): produces an anxioltyic action in the social interaction test |
| 0.245 µM |  | Cc1ccc(Nc2cc(N(C)C)nc(N3CCc4ccccc43)n2)cc1 [Example 75] |  |  |
| 1.66 µM | 0.19 µM | CN(C)c1cc(Nc2ccc3ccccc3c2)nc(N(C)CCc2c[nH]c3ccccc23)n1 [Example 79] |  | Ki (human GAL1 receptor): 3.8 µM |
|  |  | O=C1C(=Nc2ccc(C(F)(F)F)cc2)c2ccccc2N1c1ccccc1 [Example 95, 1-PHENYL-3-[[4-(TRIFLUOROMETHYL)PHENYL]IMINO]-1,3-DIHYDRO-2H-INDOL-2-ONE] | does not produce antidepressant-like actions in the forced swim test |  |
|  |  | O=C1C(=Nc2ccc(Br)cc2)c2ccccc2N1c1ccccc1 [Example 98, 3-[(4-BROMOPHENYL)IMINO]-1-PHENYL-1,3-DIHYDRO-2H-INDOL-2-ONE] | produces a profile in the modified Lucki version of the FST resembling that of the clinically established antidepressant fluoxetine | Climbing (male Sprague-Dawley rats [2]; rat FST, single p.o. administration, 3 mg/kg, 1 hr before test, 3 mg/kg): significantly greater increase in climbing compared to 30 mg/kg of Example 98 |
|  |  | O=C1C(=Nc2cc(Cl)cc(Cl)c2)c2ccccc2N1c1ccccc1 [Example 103, 3-[(3,5-DICHLOROPHENYL)IMINO]-1-PHENYL-1,3-DIHYDRO-2H-INDOL-2-ONE] | has antidepressant properties |  |
|  |  | CN(C)c1cc(Nc2ccc(Cl)c(Cl)c2)nc(N2CCN(Cc3ccccc3)CC2)n1 [Example 151] | produces behavioral effects in the FST in rats that resemble those of antidepressants |  |
|  | 0.216 µM | Cc1ccc(Nc2cc(N(C)C)nc(N3CCN(c4ncccc4C#N)CC3)n2)cc1 [Example 241] |  |  |
|  |  | O=C1/C(=N\c2ccc(Cl)c(Cl)c2)c2ccccc2N1c1ccsc1 [Example 272, (3Z)-3-[(3,4-DICHLOROPHENYL)IMINO]-1-(3-THIENYL)-1,3-DIHYDRO-2H-INDOL-2-ONE] | has the profile of an antidepressant |  |
|  |  | CNCCC(Oc1ccc(C(F)(F)F)cc1)c1ccccc1 (stereo not drawn) [Fluoxetine, fluoxetine, reference compound] |  | Climbing (male Sprague-Dawley rats [2]; [5]): 4.5 ± 1.2 counts; Diving (male Sprague-Dawley rats [2]; [5]): 1.0 ± 0.8 counts; p.o. dose required to inhibit 5-HT uptake in the CNS by 50% (male Sprague-Dawley rats [4]): 7 mg/kg |

| SMILES | Ki (human GAL2 receptor) | Ki (human GAL3 receptor) | Overall profile in the Forced Swim Test (male Sprague-Dawley rats [2]) | also measured |
| --- | --- | --- | --- | --- |
| CN(C)c1cc(N)nc(N(c2ccccc2)c2ccc(Cl)cc2)n1 [Example 58] | > 5 µM | 0.783 µM |  | Ki (human GAL1 receptor): > 5 µM |

— patent US20090318504A1, “Use of GAL3 receptor antagonists for the treatment of depression and/or anxiety and compounds useful in such methods” (priority 2001, published 2009)
